Literature values in patent US20250255842A1, “S[…]-RESOLVING LIPID MEDIATORS FOR TREATING LONG COVID-19” (Solutex GC, S.L., priority 2022, published 2025).

Tested on: thrombus
Conditions: administration of RvD4; less neutrophil infiltration, more pro-resolving monocytes

CC/C=C\C[C@H](O)/C=C/C=C\C\C=C/C=C/C=C/[C@@H](O)[C@@H](O)CCC(=O)O [RvD4, 4S,5R,17S-trihydroxy-6E,8E,10Z,13Z,15E,19Z-docosahexaenoic acid]
Thrombus burden: significantly reduced
